The source of these data is patent US20060013804A1, “Modulation of stem cell differentiation by modulation of caspase-3 activity” (Ottawa Health Research Institute, priority 2002, published 2006).

“Also recorded” adds a separate entry of the source.

Assay type in all cases: cell-based, mouse
For assay [1], the system named is PAK2. The assay is described as follows: Immunoprecipitation/kinase assay of PAK2 from neurospheres. Particulars: inhibited vs control treated cultures, neurosphere differentiation.
Assay [2] relates to clonally-derived CD1 neurospheres. As to the kind of experiment: Neurite extensions / morphology of differentiating neurospheres. Particulars: differentiation media up to 5 d, 2.0 μM inhibitor, vs DMSO. The method, then: (§1) Neurospheres were sub-cultured no more than once per collection. The differentiation of neurospheres was initated by plating spheres on poly-L-ornithine coated plates in NeuroCult Differentiation Medium in the absence of bFGF, as per manufacturer's instructions. […] All cultures received fresh media and inhibitor every 24 h for the duration of the experiment. Neurospheres from caspase 3 null embryos (Fernando, P., et al., (2002) Proc Natl Acad Sci USA 99, 11025-11030) were cultured as described above.
(§2) Immunocytochemistry: Neurospheres were collected at selected time points, fixed in 4% paraformaldehyde and prepared for immunostaining as previously described (Fernando, P., et al., (2002) Proc Natl Acad Sci USA 99, 11025-11030)). The primary antibody concentrations for anti-nestin, -GFAP, -MBP and -active caspase 3 (BioVision, USA) were titrated on wildtype CD1 neurospheres prior to their experimental use. These antibodies were visualized by counterstaining with either FITC or Cy3 conjugated secondary antibodies (Chemicon USA). Nuclei were localized with 4′,6-Diamidino-2 phenylindole (DAPI) (Sigma, USA). Cells were visualized using either an Axiovert 100 for transmission microscopy or Axioplan 2 for fluorescent microscopy (Zeiss, Germany) at selected magnifications. Captured images were processed using AxioVision Viewer 3.0 software.
Quantitation of Neurite Extensions: Neurites from differentiating neurospheres were estimated from a total of 6-8 neurospheres per condition over three independent experiments. To quantitated neuritis, the average diameter of an individual neurosphere was estimated from the vertical and horizontal distance. The number of extensions leaving the neurosphere body were then counted and an ratio of neurosphere extensions:average neurosphere diameter was calculated for each. All measurements including neurosphere diameter were evaluated using Scion Image.

The test system is the same in assay [3]. As to the kind of experiment: CD1 neurosphere differentiation with caspase inhibitor: immunocytochemistry and immunoblot of neural markers. The settings on record: for nestin expression under differentiation conditions: early periods (48 h). The method, then: Neurosphere culture: clonally-derived neurospheres were generated from the striatum of E14.5 CD1 murine embryos according to methods previously described (Reynolds, B. A., and Weiss, S. (1996) Dev Biol 175, 1-13). The neurospheres were maintained in NeuroCult Proliferation Medium (StemCell Technologies, Canada) supplemented with 20 ng/ml basic fibroblast growth factor (bFGF) as per manufacturer's instructions.
as §1, §2
Immunoblot Assays: Immunoblot analyses were performed as previously described (Fernando, P., et al., (2002) Proc Natl Acad Sci USA 99, 11025-11030). All samples were processed at 4° C. to maintain protein integrity. To generate neurosphere cell extracts, cultured neurospheres were collected at the indicated time points and solubilized in modified RIPA buffer containing protease and phosphatase inhibitors. Cells were sheared 4-5 times through a 21 gauge needle and mixed by 360° rotation at 4° C. for 30 minutes. Nestin 3 (AbCam, UK) was detected following the separation of total cellular proteins through a 6% acrylamide gel and Western transfer. Antibodies against neuronal class III […] and GFAP (AbCam, USA), active caspase 3 (BioVision, USA), 2′3′ cyclic nucleotide 3′ phosphohydrolase (CNPase) (Chemicon, USA) and p38α (Santa Cruz, USA) were used to detect proteins following separation by 10% polyacrylamide electrophoresis and Western transfer. In some instances, sample aliquots were sonicated following cell lysis in order to detect total cellular poly-ADP ribose polymerase (PARP) (BioVison, USA). Soluble PARP was assayed from unsonicated samples. Protein bands from Western blot assays were quantitated using Scion Image (Scion Corporation, USA).

The subject of assay [4] is endogenous kinases (MBP-directed cellular kinase activities). The assay is described as follows: Two-dimensional in-gel kinase assay of C2C12 lysates with MBP as substrate. Particulars: C2C12, 12 h low serum treatment with inhibitor, vs untreated. The method, then: Samples were subjected to in-gel kinase analyses as previously described (Kolodziejczyk, S. M., et al., (1999) Curr Biol 9, 1203-1206) using MBP or Histone H1 as the target substrate. For two-dimension in-gel kinase analyses, samples were isoelectric focused in the first dimension using pH 4.0-7.0 IPG strips (BioRad). Second dimension analyses was performed using 10% SDS-PAGE containing Histone H1 as the in-gel substrate. Additional in-gel kinase analyses was performed as above.
A two-dimensional in-gel kinase assay was employed using myelin basic protein (MBP) as a target substrate to identify protein kinases that may be targeted by caspase-3 activity. C2C12 cells were treated with caspase-3 inhibitor and total protein lysates were isoelectrically focused in the first dimension and then separated in the second dimension using MBP as the crosslinked substrate. […] Similar results were seen using histone H1 as the in-gel substrate.

Assay [5] relates to CD1 neurosphere cells. The assay is described as follows: Annexin-V-PI flow cytometry of differentiating neurosphere cells. The protocol: as §1
Flow Cytometry: Annexin-V-propidium iodide (PI) analysis of apoptotic and nectrotic cells was performed using an Annexin-V-FLUOS staining kit (Roche, USA). Analyses were performed using a Beckman-Coulter ALTRA flow cytometer. To detect Annexin-V and PI positive cells, flow cytometric channels were gated using cells without stain, stained with PI alone and stained with Annexin-V alone. Cells that had dissociated from their neurosphere bodies were gently collected without excessive disruption of the sphere/cell body. These cells were chosen for flow cytometry analyses. Each sample was gated to control for cellular debris.
As in most developmental processes, a population of cells is required to undergo apoptosis prior to the differentiation of a separate pool of cells. Clearly, the inhibition of caspase 3 may adversely affect this process. To address this issue, we measured the degree of apoptosis that occurred during differentiation in caspase 3 inhibited and uninhibited cells using the specific caspase 3 peptide inhibitor zDEVD.fmk and Annexin V-propidium iodide (PI) staining coupled to cytometric analyses (FIG. 15). Annexin V detects cells that are either apoptotic or necrotic whereas propidium iodide is able to detect necrotic cells. Together, Annexin-V-PI analyses identify the population of cells that are apoptotic, i.e. Annexin-V positive/PI negative. To control for the heterogeneity of cells within neurospheres as described previously (Bez et al., (2003) Brain Res 993, 18-29), we performed our analyses on cells that had dissociated from the neurosphere. […]
A general note: Flow cytometry measures light scatter and fluorescence of single cells or particles in a stream.

Where [6] appears, read: 2.0 μM inhibitor, differentiation media 48 h.

For `COC(=O)CC[C@H](NC(=O)[C@H](CC(=O)OC)NC(=O)OCc1ccccc1)C(=O)N[C@H](C(=O)N[C@@H](CC(=O)OC)C(=O)CF)C(C)C` [z-DEVD.fmk], the PAK2 activity entry in assay [1] is “did not observe differences in PAK2 activity”. In addition, in assay [2], the “neurite extensions / morphological changes” value is given as “dramatic reduction in the formation of these projections; also recorded: absent”. Moreover, the GFAP expression result in assay [3] (setting [6]) is recorded as “significant decrease; also recorded: fail to express the astrocyte marker protein GFAP”. The MBP expression result in assay [3] (setting [6]) is listed as “significant decrease; also recorded: fail to express the oligodendrocyte marker protein MBP”. The “nestin expression under differentiation conditions” value in assay [3] (2.0 μM inhibitor, differentiation media) was “sustained expression of nestin; also recorded: remain in an early progenitor state and express nestin”; in assay [3] (2.0 μM inhibitor, differentiation media, listed as DEVD), “remained elevated”; in assay [3] (2.0 μM inhibitor, differentiation media, listed as z-DEVD), “remained elevated during the early periods of differentiation”. The “nestin expression under growth conditions” value in assay [3] (2.0 μM inhibitor, growth conditions) was “did not affect nestin expression; also recorded: express nestin”. Further, in assay [3] (4 d, immunoblot), the “nestin after extended period in differentiation media” value is recorded as “a decrease in nestin was observed”. Moreover, in assay [3] (5 d differentiation, immunoblot), the “β-III tubulin level after 5 d” value is “very low level of β-III tubulin was detectable”. The “β-III tubulin (Tuj-1) accumulation” value in assay [3] (differentiation media, immunoblot, vs DMSO) is given as “did not increase; also recorded: lower in caspase 3 inhibited samples relative to control”. Also, the “activity of endogenous kinases (in-gel, MBP substrate)” value is listed as “diminished level of activity” in assay [4] and “significant loss of MBP-directed cellular kinase activities” in assay [4] (listed as caspase-3 inhibitor). Further, the “Annexin-V positive/PI positive cell population” value in assay [5] (12 h in differentiation media, cells dissociated from neurosphere) was “approximately 27%”. Further, in assay [5] (24 h in differentiation media), the “level of apoptosis (Annexin-V-PI)” value is listed as 33%. For the same molecule, the “effect on apoptosis during neurosphere differentiation” value in assay [5] (inhibited relative to uninhibited cells) is “did not affect apoptosis”.
